From paper PMC8231170, “Biphenylalkoxyamine Derivatives–Histamine H3 Receptor Ligands with Butyrylcholinesterase Inhibitory Activity” (Molecules, 2021)
Entries after “also recorded” stand apart in the source; their conditions may differ. Where two headings read alike, the source gives them in different places.

Assays:
[1] = biological target: human acetylcholinesterase; conditions: read-out: hAChE IC50; cited from earlier work
[2] = biological target: human butyrylcholineserase; conditions: read-out: hBuChE IC50; cited from earlier work
[3] = biological target: Fatty Acid Amide Hydrolase from rat brain membranes; conditions: read-out: rFAAH IC50; cited from earlier work
eqBuChE = biological target: T1, eqBuChE (Equus caballus, UniProt P81908); assay: kinetic studies of eqBuChE inhibition; format: biochemical; conditions: for type of eqBuChE inhibition: Lineweaver–Burk and Cornish–Bowden plots, substrate butyrylthiocholine
T1 construct: AChE was obtained from electric eel and BuChE from equine serum; purchased Sigma Aldrich; host or cells: equine serum (natural source)
Procedure: Moreover, the dissociation constant (Ki), describing the binding affinity between the inhibitor and the enzyme, was determined.
EqBuChE stock solution was diluted with demineralized water prior to use, giving the final concentration of 0.027 U/mL in the wells. […] For each concentration of the target compound, all six BTC solutions were utilized to perform the assays. Vmax and Km values of the Michaelis−Menten kinetics were calculated by nonlinear regression from substrate−velocity curves. Lineweaver-Burk and Cornish-Bowden plots were calculated using linear regression in GraphPad Prism 5 (GraphPad Software, San Diego, CA, USA). Each experiment was performed in triplicate.

human MAO B = biological target: T2, human MAO B (Homo sapiens, UniProt P27338); assay: fluorometric Monoamine Oxidase assay; format: biochemical; conditions: for inhibition at 1 µM: read-out: hMAO B %Inh. (converted)
T2 construct: purchased Sigma Aldrich M7441
T2 sequence (P27338 1-520): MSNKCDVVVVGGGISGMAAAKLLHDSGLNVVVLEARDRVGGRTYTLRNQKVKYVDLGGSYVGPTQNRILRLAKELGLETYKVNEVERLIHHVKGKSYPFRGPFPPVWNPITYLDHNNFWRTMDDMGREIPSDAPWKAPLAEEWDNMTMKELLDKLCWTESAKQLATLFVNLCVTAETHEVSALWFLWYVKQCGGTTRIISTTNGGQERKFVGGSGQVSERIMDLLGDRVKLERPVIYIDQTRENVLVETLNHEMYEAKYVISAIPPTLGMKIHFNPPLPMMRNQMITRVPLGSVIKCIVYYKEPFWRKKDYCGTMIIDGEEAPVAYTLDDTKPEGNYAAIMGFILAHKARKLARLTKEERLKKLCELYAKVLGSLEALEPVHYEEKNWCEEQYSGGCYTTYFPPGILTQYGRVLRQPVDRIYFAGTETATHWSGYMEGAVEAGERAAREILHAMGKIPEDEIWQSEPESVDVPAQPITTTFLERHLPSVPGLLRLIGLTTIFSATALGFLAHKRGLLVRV
Procedure: Inhibition of human MAO B (hMAO B) was evaluated using a fluorometric Monoamine Oxidase assay as we described previously.
Inhibition of hMAO B was evaluated using fluorometric Monoamine Oxidase assay as described by Łażewska et al.. Recombinant MAO B was purchased from Sigma Aldrich (M7441). […] The assay was carried out in 96-well plate. Tested compounds dissolved in DMSO (1 μM) were added to wells that contained 98 µL of enzyme dilution (1 µg/well) in phosphate buffer (50 mM, pH 7.4). […] An enzymatic reaction started following addition of para-tyramine solution (200 μM). […] Each experiment was performed in duplicate.

BuChE from equine serum [4] = biological target: T3, BuChE from equine serum (Equus caballus, UniProt P81908); conditions: read-out: eqBuChE IC50 Mean ± SEM; cited from earlier work
T3 construct: AChE was obtained from electric eel and BuChE from equine serum; purchased Sigma Aldrich; host or cells: equine serum (natural source)

AChE from electric eel [5] = biological target: T4, AChE from electric eel (Electrophorus electricus, UniProt O42275); conditions: cited from earlier work
T4 construct: AChE was obtained from electric eel and BuChE from equine serum; purchased Sigma Aldrich; host or cells: electric eel (natural source)

[6] = up to 10 µM; cited from earlier work
[7] = system: mouse model of scopolamine-induced memory impairments; assay: step-through Passive Avoidance Task; format: in vivo; conditions: mice
Procedure: This procedure was created for studying short-term memory as well as long-term memory. The paradigm requires the rodents to behave contrary to their innate preference for dark areas and for avoiding bright ones.
The experiments were carried out on adult male Albino Swiss mice (CD-1, 18–25 g). […] Experimental groups consisted of 6–12 animals, all the animals were used only once and they were killed by cervical dislocation immediately after the assay. Behavioral measures were scored by trained observers, which were blind to experimental conditions. Treatment of laboratory animals in the present study was in full accordance with the respective Polish regulations.
Control animals (negative control) were given an appropriate amount of vehicle (1% aqueous solution of Tween 80; i.p.) 30 min before the test.
The task was performed according to the method described previously. Briefly, the test was conducted in the apparatus with two compartments (LE872, Bioseb, France). The illuminated white compartment (20 cm × 21 cm × 20 cm, 1000 lx) was separated by an automated sliding gate with the smaller dark compartment (7.3 cm × 7.5 cm × 14 cm, 10 lx) equipped with an electric grid floor. For acquisition session, mice were first placed individually in the white compartment and after 30 s the gate to the smaller compartment was opened. Immediately after entering into the dark compartment, the gate was closed and the mouse was punished by an unavoidable electric foot shock (0.8 mA for 2 s). […] Next day (24 h later), the pretested animals were placed again into the bright compartment. […] The latency time to cross through the gate between the compartments was measured.

BuChE from equine serum [8] = biological target: T3, BuChE from equine serum; assay: eqBuChE inhibition, Ellman's method; format: biochemical
Procedure: The inhibitory activities of the tested compounds against cholinesterases were evaluated by Ellman’s method. AChE was obtained from electric eel and BuChE from equine serum. […] Inhibitory activities of the tested compounds against cholinesterases were measured using a spectrophotometric method modified for 96-well microplates as described recently.
First, all compounds were screened at the concentration of 10 μM. […] Then, the percent of inhibition of tested enzymes for each compound was calculated. […] Each concentration was measured in triplicate. All calculations were made using nonlinear regression GraphPad Prism 5 (GraphPad Software, San Diego, CA, USA).

histamine receptors: H1 = conditions: cited from earlier work
histamine receptors: H4 = conditions: cited from earlier work
AChE from electric eel [9] = biological target: T4, AChE from electric eel; assay: eeAChE inhibition, Ellman's method; format: biochemical; conditions: read-out: eeAChE % Inh.
Procedure: The inhibitory activities of the tested compounds against cholinesterases were evaluated by Ellman’s method. AChE was obtained from electric eel and BuChE from equine serum. Donepezil and rivastigmine were used as reference compounds. […]. Inhibitory activities of the tested compounds against cholinesterases were measured using a spectrophotometric method modified for 96-well microplates as described recently.
[…]. First, all compounds were screened at the concentration of 10 μM. The changes in absorbance were measured at 412 nm, using a microplate reader (EnSpire Multimode; PerkinElmer, Waltham, MA, USA). Then, the percent of inhibition of tested enzymes for each compound was calculated. […] Each concentration was measured in triplicate. All calculations were made using nonlinear regression GraphPad Prism 5 (GraphPad Software, San Diego, CA, USA).

[10] = previous in vitro studies; cited from earlier work
hH3R = conditions: cited from earlier work

T4 sequence (O42275 24-633): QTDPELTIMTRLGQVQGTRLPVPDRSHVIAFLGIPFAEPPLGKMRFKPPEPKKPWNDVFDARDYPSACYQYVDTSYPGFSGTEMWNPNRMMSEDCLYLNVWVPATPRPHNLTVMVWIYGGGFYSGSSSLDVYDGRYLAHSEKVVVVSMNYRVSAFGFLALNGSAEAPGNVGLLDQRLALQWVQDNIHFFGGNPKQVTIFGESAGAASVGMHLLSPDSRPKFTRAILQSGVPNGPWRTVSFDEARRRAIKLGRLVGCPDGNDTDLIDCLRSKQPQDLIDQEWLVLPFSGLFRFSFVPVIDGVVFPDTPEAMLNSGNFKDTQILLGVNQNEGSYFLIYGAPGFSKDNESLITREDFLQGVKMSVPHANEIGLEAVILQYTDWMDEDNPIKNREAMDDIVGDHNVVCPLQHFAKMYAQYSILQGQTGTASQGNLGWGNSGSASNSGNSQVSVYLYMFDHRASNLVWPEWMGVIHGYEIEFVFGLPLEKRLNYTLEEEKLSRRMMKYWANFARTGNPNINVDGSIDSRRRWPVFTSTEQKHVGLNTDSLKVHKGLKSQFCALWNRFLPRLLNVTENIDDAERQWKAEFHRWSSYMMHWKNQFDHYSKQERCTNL
T1 sequence (P81908 whole entry): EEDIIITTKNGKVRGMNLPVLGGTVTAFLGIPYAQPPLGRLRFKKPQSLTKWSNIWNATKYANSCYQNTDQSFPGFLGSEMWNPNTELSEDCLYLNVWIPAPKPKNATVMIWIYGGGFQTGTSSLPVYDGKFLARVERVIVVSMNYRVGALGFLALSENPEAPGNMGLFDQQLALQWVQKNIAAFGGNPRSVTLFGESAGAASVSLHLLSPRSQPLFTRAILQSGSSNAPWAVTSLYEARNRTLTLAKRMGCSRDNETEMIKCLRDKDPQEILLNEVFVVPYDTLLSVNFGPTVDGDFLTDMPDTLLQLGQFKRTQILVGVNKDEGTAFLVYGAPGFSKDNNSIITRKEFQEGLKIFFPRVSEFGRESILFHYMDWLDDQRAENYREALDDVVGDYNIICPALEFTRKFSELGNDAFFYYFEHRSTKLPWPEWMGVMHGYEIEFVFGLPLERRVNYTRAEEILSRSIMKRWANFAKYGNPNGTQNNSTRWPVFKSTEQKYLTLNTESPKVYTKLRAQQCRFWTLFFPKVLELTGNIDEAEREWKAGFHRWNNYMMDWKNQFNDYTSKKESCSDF
T3 sequence (P81908 whole entry): as above

Cc1[nH]c2ccccc2c1CC(=O)NCCC1CCN(Cc2ccccc2)CC1 [Compound 1]
IC50 [1]: 7.27 µM
IC50 [2]: 0.00109 µM

O=C(NCCCCCc1ccccc1)Oc1cccc(Cn2cc(COc3ccc4ccc(=O)oc4c3)nn2)c1 [Compound 2]
IC50 [1]: 0.922 µM
IC50 [3]: 0.028 µM
IC50 [2]: 0.043 µM

c1ccc(-c2ccc(OCCCCCCN3CCCCCC3)cc2)cc1 [Compound 5]
type of eqBuChE inhibition (eqBuChE): non-competitive type of eqBuChE inhibition
Ki (eqBuChE; replot of Lineweaver–Burk data, read-out: dissociation constant (Ki) for eqBuChE): 0.651 µM
inhibition at 1 µM (human MAO B): 45%
IC50 (BuChE from equine serum [4]): 0.6 ± 0.01 µM
IC50 (AChE from electric eel [5]; AChE from electric eel, read-out: eeAChE IC50 Mean ± SEM): 2.76 ± 0.04 µM
eeAChE % Inh. (AChE from electric eel [5]; at 10 μM): more than 50%

c1ccc(-c2ccc(OCCCCCN3CCCCCC3)cc2)cc1 [Compound 19, 1-(5-([1,1′-biphenyl]-4-yloxy)pentyl)azepane]
type of eqBuChE inhibition (eqBuChE): mixed type of enzyme inhibition; also recorded: mixed mode of enzyme inhibition
mutagenic activity [6]: no mutagenic activity
latency time, retention trial ([7]; 1.25 mg/kg i.p. before scopolamine 1 mg/kg): 93.5 ± 17.4 s
latency time, retention trial ([7]; 2.5 mg/kg i.p. before scopolamine 1 mg/kg): 119.1 ± 21.2 s
latency time, retention trial ([7]; 5.0 mg/kg i.p. before scopolamine 1 mg/kg): 129.8 ± 17.8 s
activity in retention trial ([7]; 10 mg/kg i.p. before scopolamine 1 mg/kg): lower activity
effect on scopolamine-induced memory deficits ([7]; Passive Avoidance Task, listed as 19 (E153)): effectively alleviated memory deficits caused by scopolamine; also recorded: reversed memory impairments induced by scopolamine
latency times, acquisition trial ([7]; i.p.): neither scopolamine, nor 19 nor rivastigmine significantly affected latency times
IC50 (BuChE from equine serum [8]): 0.59 ± 0.01 µM
Ki (histamine receptors: H1): 1.3 µM
IC50 (human MAO B): 0.243 ± 0.073 µM
inhibition at 1 µM (human MAO B): 54%
Ki (histamine receptors: H4): 21.8 µM
inhibition at 10 µM (AChE from electric eel [9]): 44%
blood–brain barrier crossing [10]: crosses the blood–brain barrier (BBB)

O=c1c2cc(Cl)ccc2oc2ccc(OCCCCCN3CCCCCC3)cc12 [Compound E342]
Ki (hH3R): 0.1 µM
IC50 [1]: 0.12 µM
IC50 [2]: 1.59 µM

C#CCN(C)Cc1cc2cc(OCCCN3CCCCC3)ccc2n1C [contilisant]
Ki (hH3R): 0.011 µM
IC50 [1]: 0.53 µM
IC50 [2]: 1.69 µM
